# Assay results published in patent EP2902035B1, “Cell-permeable peptide inhibitors of the JNK signal transduction pathway for use in the treatment of inflammatory eye diseases” (Xigen Inflammation Ltd., priority 2010, dated 2012).
# What was measured:
# [1] = Ocular biodistribution by immunohistochemistry against SEQ ID NO: 11; type: in vivo, Lewis rats
# Experimental: For immunohistochemistry, eyeballs were collected and fixed for 1h at room temperature in phosphate buffered saline (PBS) containing 4% paraformaldehyde before being rinsed overnight in PBS. The next day, samples were embedded and frozen in optimal cutting-temperature (OCT) compound (Tissue-Tek®, Sakura Finetek, Zoeterwoude, Netherland) and stored at -80°C. Frozen antero-posterior sections of eyes (10 µm thick) were performed at the optic nerve level using a cryostat (Leica CM 3050S, Rueil-Malmaison, France) and mounted on super-frost slides for immunohistochemical analysis.
# (§1) A second set of experiment was designed to evaluate the anti-inflammatory effect of the JNK-inhibitor (poly-)peptide of SEQ ID NO: 11 at the cellular and tissue level as well as the biodistribution of this molecule 24 hours after administration. Rats were randomized into 11 experimental groups. 6 groups of rats with uveitis: untreated uveitic rats, rats injected intravenously with NaCl or the JNK-inhibitor (poly-)peptide of SEQ ID NO: 11 and rats injected intravitreously with the vehicle, the JNK-inhibitor (poly-)peptide of SEQ ID NO: 11 or dexamethasone. The 5 additional groups without uveitis were: untreated healthy rats, rats treated by NaCl IV or the JNK-inhibitor (poly-)peptide of SEQ ID NO: 11 IV and rats injected IVT with NaCl or the JNK-inhibitor (poly-)peptide of SEQ ID NO: 11. Three eyes from separate rats were collected per group and used for immunohistochemistry.
# Immunostaining of the JNK-inhibitor (poly-)peptide of SEQ ID NO: 11 was performed on healthy and uveitic eyes to study its ocular biodistribution after systemic or local administration. Briefly, sections were permeabilized as described above before being sequentially incubated with an anti- SEQ ID NO: 11 purified rabbit IgG and a secondary Alexa 594 (red)-conjugated goat anti-rabbit IgG (Invitrogen, Cergy Pontoise, France) diluted 1:100 and 1:250 in PBS respectively. Immunostaining of untreated healthy and uveitic eyes were used as negative controls. Nuclei were stained with DAPI before mounting and observation.
# [2] = tested on: iNOS positive cells; assay: Immunohistochemistry of iNOS on eye sections in EIU; type: in vivo, Lewis rats; settings: IV or IVT injection compared to control eyes, 24h
# Experimental: as §1, with “immunohistochemistry. To characterize the cellular infiltrate, sections were double-stained with ED1 and iNOS. […] After staining nuclei with DAPI (Sigma-Aldrich, Saint-Quentin Fallavier, France), sections were mounted in PBS/Glycerol (1/1) and observed by fluorescence photomicroscopy (FXA, Microphot, Nikon, Melville, USA). […] ED1 positive cells and polymorphonuclear cells, identified by the shape of their nuclei stained with DAPI, were quantified on histological sections. […] Results were expressed as mean ± standard error of the mean (SEM).” for “immunohistochemistry.”
structure (smiles),measurement,setting,value
CC(C)C[C@@H](NC(=O)[C@@H](Cc1ccccc1)NC(=O)[C@H]1CCCN1C(=O)[C@@H](CCC(N)=O)NC(=O)[C@H](NC(=O)[C@H]1CCCN1C(=O)[C@@H](CCCNC(=N)N)NC(=O)[C@@H](CO)NC(=O)[C@@H](CCC(N)=O)NC(=O)[C@H](N)CC(=O)O)C(C)C)C(=O)N[C@H](CC(N)=O)C(=O)N[C@H](CC(C)C)C(=O)N[C@@H](C(=O)N[C@@H](C(=O)N1CCC[C@@H]1C(=O)N[C@H](CCCNC(=N)N)C(=O)N[C@H](CCCCN)C(=O)N1CCC[C@@H]1C(=O)N[C@H](CCCNC(=N)N)C(=O)N1CCC[C@@H]1C(=O)N1CCC[C@@H]1C(=O)N[C@H](CCCNC(=N)N)C(=O)N[C@H](CCCNC(=N)N)C(=O)N[C@H](CCCNC(=N)N)C(=O)N[C@H](CCC(N)=O)C(=O)N[C@H](CCCNC(=N)N)C(=O)N[C@H](CCCNC(=N)N)C(=O)N[C@H](CCCCN)C(=O)N[C@H](CCCCN)C(=O)N[C@H](CCCNC(=N)N)C(=O)NCC(=O)O)[C@H](C)O)[C@H](C)O [SEQ ID NO: 11],detection of the peptide in ocular tissues,"[1]; EIU eyes, 24 hours after IV injection",not detected
same,"detection of the peptide in infiltrating inflammatory cells (iris, aqueous humor)","[1]; EIU eyes, 24 hours after IV injection, occasional cells",immunopositive
same,subcellular localisation of the peptide,"[1]; all cell types, normal eyes after IVT administration",accumulated within the cytoplasm
same,immunoreactivity of the peptide in ocular tissues,"[1]; normal eyes, 24 hours after systemic (IV) injection, 20 µg/kg",no signal was observed
same,distribution of the peptide in ocular tissues,"[1]; normal rats, 24 hours after IVT administration, 0.2 µg/injection",distributed in almost all ocular tissues
same,distribution of the peptide in ocular tissues and resident cells,"[1]; uveitic eyes, 24 hours after IVT injection",mostly found in ocular tissues like in healthy eyes and in resident cells
same,number of iNOS positive cells,[2],reduced
